Experimental data: ChEMBL document CHEMBL5512654, “Discovery of novel Thymol-TPP antibiotics that eradicate MRSA persisters” (Eur J Med Chem, 2024)
Converted amounts (≈) assume the structure as drawn. The source made the active and inactive calls. No cut-off for these calls is given here.

Legend:
[1] = test system: Staphylococcus aureus; test: In vivo antibacterial efficacy in bioluminescent Staphylococcus aureus Xen29 infected in mouse topical infection model assessed as reduction in number of colonies at 8 mg/kg, sc treated 16, 24, 36, 48, […] hrs post-infection measured after 84 hrs relative to control; assay type: functional
[2] = test system: Staphylococcus aureus; test: Antibacterial activity against Staphylococcus aureus ATCC 43300 assessed as inhibition of bacterial growth measured after 18 hrs by microplate reader; assay type: functional; details: read-out: MIC100
[3] = test system: Staphylococcus aureus; test: Antibacterial activity against methicillin-resistant Staphylococcus aureus USA 300 assessed as inhibition of bacterial growth measured after 18 hrs by microplate reader; assay type: functional; details: read-out: MIC100
[4] = test system: Staphylococcus aureus; test: Antibacterial activity against methicillin-resistant Staphylococcus aureus USA 3390 assessed as inhibition of bacterial growth measured after 18 hrs by microplate reader; assay type: functional; details: read-out: MIC100
[5] = test system: Pseudomonas aeruginosa; test: Antibacterial activity against Pseudomonas aeruginosa 535 assessed as inhibition of bacterial growth measured after 18 hrs by microplate reader; assay type: functional; details: read-out: MIC100
[6] = test system: Klebsiella pneumoniae; test: Antibacterial activity against Klebsiella pneumonia 3026 assessed as inhibition of bacterial growth measured after 18 hrs by microplate reader; assay type: functional; details: read-out: MIC100
[7] = test system: Pseudomonas aeruginosa; test: Antibacterial activity against Pseudomonas aeruginosa ATCC 27853 assessed as inhibition of bacterial growth measured after 18 hrs by microplate reader; assay type: functional; details: read-out: MIC100
[8] = test system: Acinetobacter baumannii; test: Antibacterial activity against Acinetobacter baumannii ATCC 1318 assessed as inhibition of bacterial growth measured after 18 hrs by microplate reader; assay type: functional; details: read-out: MIC100
[9] = test system: Escherichia coli; test: Antibacterial activity against Escherichia coli 53328 assessed as inhibition of bacterial growth measured after 18 hrs by microplate reader; assay type: functional; details: read-out: MIC100
[10] = test system: Acinetobacter baumannii; test: Antibacterial activity against Acinetobacter baumannii ATCC 19606 assessed as inhibition of bacterial growth measured after 18 hrs by microplate reader; assay type: functional; details: read-out: MIC100
[11] = Cytotoxicity against human L02 cells incubated for 72 hrs by MTT dye reduction assay; assay type: toxicity, cell-based
[12] = test system: Escherichia coli; test: Antibacterial activity against Escherichia coli ATCC 25922 assessed as inhibition of bacterial growth measured after 18 hrs by microplate reader; assay type: functional; details: read-out: MIC100
[13] = test system: Klebsiella pneumoniae; test: Antibacterial activity against Klebsiella pneumonia ATCC 700603 assessed as inhibition of bacterial growth measured after 18 hrs by microplate reader; assay type: functional; details: read-out: MIC100

| SMILES | MIC [2] | MIC [3] | MIC [4] | also measured |
| --- | --- | --- | --- | --- |
| CN[C@H](CC(C)C)C(=O)N[C@H]1C(=O)N[C@@H](CC(N)=O)C(=O)N[C@H]2C(=O)N[C@H]3C(=O)N[C@H](C(=O)N[C@H](C(=O)O)c4cc(O)cc(O)c4-c4cc3ccc4O)[C@H](O)c3ccc(c(Cl)c3)Oc3cc2cc(c3O[C@@H]2O[C@H](CO)[C@@H](O)[C@H](O)[C@H]2O[C@H]2C[C@](C)(N)[C@H](O)[C@H](C)O2)Oc2ccc(cc2Cl)[C@H]1O |  |  |  | AC200 [1]: Active |
| Cc1cc(O)c(C(C)C)cc1-c1cccc(F)c1 | 16 µg/mL (≈ 65.5 µM) | 16 µg/mL (≈ 65.5 µM) | 16 µg/mL (≈ 65.5 µM) |  |
| Cc1cc(OC(=O)CCCCCCCC[P+](c2ccccc2)(c2ccccc2)c2ccccc2)c(C(C)C)cc1-c1ccccc1.[Br-] |  |  |  | MIC [5]: 32 µg/mL; MIC [6]: 64 µg/mL; MIC [7]: 64 µg/mL; MIC [8]: 8 µg/mL; MIC [9]: 16 µg/mL; MIC [10]: 16 µg/mL; IC50 at 72 h [11]: 13.2 µg/mL; MIC [12]: 4 µg/mL; MIC [13]: 64 µg/mL |
| Cc1cc(O)c(C(C)C)cc1-c1ccccc1C(=O)O | 16 µg/mL (≈ 59.2 µM) | 8 µg/mL (≈ 29.6 µM) | 8 µg/mL (≈ 29.6 µM) |  |
| Cc1cc(O)c(C(C)C)cc1-c1cccc(O)c1 | 32 µg/mL (≈ 132 µM) | 32 µg/mL (≈ 132 µM) | 32 µg/mL (≈ 132 µM) |  |
| Cc1ccc(-c2cc(C(C)C)c(O)cc2C)cc1 | 8 µg/mL (≈ 33.3 µM) | 16 µg/mL (≈ 66.6 µM) | 8 µg/mL (≈ 33.3 µM) |  |
| Cc1cc(O)c(C(C)C)cc1Br | 64 µg/mL (≈ 279 µM) | 64 µg/mL (≈ 279 µM) | 32 µg/mL (≈ 140 µM) |  |
| Cc1cc(O)c(C(C)C)cc1-c1cccc(C(=O)O)c1 | 8 µg/mL (≈ 29.6 µM) | 8 µg/mL (≈ 29.6 µM) | 16 µg/mL (≈ 59.2 µM) |  |
| Cc1cc(O)c(C(C)C)cc1-c1cccc(Cl)c1 | 4 µg/mL (≈ 15.3 µM) | 8 µg/mL (≈ 30.7 µM) | 8 µg/mL (≈ 30.7 µM) |  |
| Cc1cc(O)c(C(C)C)cc1-c1ccccc1C(F)(F)F | 8 µg/mL (≈ 27.2 µM) | 8 µg/mL (≈ 27.2 µM) | 16 µg/mL (≈ 54.4 µM) |  |
| COc1ccccc1-c1cc(C(C)C)c(O)cc1C | > 64 µg/mL | > 64 µg/mL | > 64 µg/mL |  |
| COc1ccc(-c2cc(C(C)C)c(O)cc2C)cc1 | 16 µg/mL (≈ 62.4 µM) | 32 µg/mL (≈ 125 µM) | 16 µg/mL (≈ 62.4 µM) |  |
| Cc1cc(OC(=O)CC[P+](c2ccccc2)(c2ccccc2)c2ccccc2)c(C(C)C)cc1-c1ccccc1.[Br-] |  |  |  | MIC [5]: > 64 µg/mL; MIC [6]: > 64 µg/mL; MIC [7]: > 64 µg/mL; MIC [8]: 16 µg/mL; MIC [9]: > 64 µg/mL; MIC [10]: 32 µg/mL; IC50 at 72 h [11]: 7.96 µg/mL; MIC [12]: 4 µg/mL; MIC [13]: 32 µg/mL |
| Cc1cc(O)c(C(C)C)cc1-c1cccc(C#N)c1 | 32 µg/mL (≈ 127 µM) | 16 µg/mL (≈ 63.7 µM) | 8 µg/mL (≈ 31.8 µM) |  |
| Cc1ccc(C(C)C)c(O)c1 [THYMOL] | 128 µg/mL (≈ 852 µM) | 128 µg/mL (≈ 852 µM) | 256 µg/mL (≈ 1700 µM) |  |
| Cc1cc(O)c(C(C)C)cc1-c1ccccc1C#N | 16 µg/mL (≈ 63.7 µM) | 8 µg/mL (≈ 31.8 µM) | 8 µg/mL (≈ 31.8 µM) |  |
| Cc1cc(O)c(C(C)C)cc1-c1ccc(C(F)(F)F)cc1 | 4 µg/mL (≈ 13.6 µM) | 4 µg/mL (≈ 13.6 µM) | 8 µg/mL (≈ 27.2 µM) |  |
| Cc1cc(O)c(C(C)C)cc1-c1ccc(Cl)cc1 | 8 µg/mL (≈ 30.7 µM) | 4 µg/mL (≈ 15.3 µM) | 8 µg/mL (≈ 30.7 µM) |  |
| Cc1cc(OC(=O)CCCCCC[P+](c2ccccc2)(c2ccccc2)c2ccccc2)c(C(C)C)cc1-c1ccccc1.[Br-] |  |  |  | MIC [5]: > 64 µg/mL; MIC [6]: 8 µg/mL; MIC [7]: > 64 µg/mL; MIC [8]: 8 µg/mL; MIC [9]: 8 µg/mL; MIC [10]: 8 µg/mL; IC50 at 72 h [11]: 18.8 µg/mL; MIC [12]: 8 µg/mL; MIC [13]: 8 µg/mL |

| SMILES | MIC [2] | MIC [3] | MIC [4] | also measured |
| --- | --- | --- | --- | --- |
| COc1cccc(-c2cc(C(C)C)c(O)cc2C)c1 | 16 µg/mL (≈ 62.4 µM) | 16 µg/mL (≈ 62.4 µM) | 16 µg/mL (≈ 62.4 µM) |  |
| Cc1cc(O)c(C(C)C)cc1-c1ccc(O)cc1 | > 64 µg/mL | > 64 µg/mL | > 64 µg/mL |  |
| Cc1cc(O)c(C(C)C)cc1-c1ccc(C(=O)O)cc1 | 16 µg/mL (≈ 59.2 µM) | 16 µg/mL (≈ 59.2 µM) | 8 µg/mL (≈ 29.6 µM) |  |
| Cc1cc(OC(=O)CCCCCCCCC[P+](c2ccccc2)(c2ccccc2)c2ccccc2)c(C(C)C)cc1-c1ccccc1.[Br-] |  |  |  | MIC [5]: 32 µg/mL; MIC [6]: > 64 µg/mL; MIC [7]: 32 µg/mL; MIC [8]: 16 µg/mL; MIC [9]: 64 µg/mL; MIC [10]: 32 µg/mL; IC50 at 72 h [11]: 8.67 µg/mL; MIC [12]: 4 µg/mL; MIC [13]: 32 µg/mL |
| Cc1cc(O)c(C(C)C)cc1-c1ccccc1 | 16 µg/mL (≈ 70.7 µM) | 8 µg/mL (≈ 35.3 µM) | 16 µg/mL (≈ 70.7 µM) | IC50 at 72 h [11]: 13.5 µg/mL (≈ 59.5 µM) |
| Cc1cc(O)c(C(C)C)cc1-c1ccncc1 | 128 µg/mL (≈ 563 µM) | 128 µg/mL (≈ 563 µM) | 128 µg/mL (≈ 563 µM) |  |
| Cc1cc(OC(=O)CCCC[P+](c2ccccc2)(c2ccccc2)c2ccccc2)c(C(C)C)cc1-c1ccccc1.[Br-] |  |  |  | MIC [5]: > 64 µg/mL; MIC [6]: 32 µg/mL; MIC [7]: > 64 µg/mL; MIC [8]: 8 µg/mL; MIC [9]: 8 µg/mL; MIC [10]: 16 µg/mL; IC50 at 72 h [11]: 8.31 µg/mL; MIC [12]: 16 µg/mL; MIC [13]: 32 µg/mL |
| Cc1ccccc1-c1cc(C(C)C)c(O)cc1C | 8 µg/mL (≈ 33.3 µM) | 8 µg/mL (≈ 33.3 µM) | 16 µg/mL (≈ 66.6 µM) |  |
| Cc1cc(O)c(C(C)C)cc1Cl [CHLOROTHYMOL] | 64 µg/mL (≈ 347 µM) | 64 µg/mL (≈ 347 µM) | 64 µg/mL (≈ 347 µM) |  |
| Cc1cc(O)c(C(C)C)cc1-c1ccccc1Cl | 8 µg/mL (≈ 30.7 µM) | 8 µg/mL (≈ 30.7 µM) | 8 µg/mL (≈ 30.7 µM) |  |
| Cc1cc(O)c(C(C)C)cc1-c1ccc(C#N)cc1 | 16 µg/mL (≈ 63.7 µM) | 16 µg/mL (≈ 63.7 µM) | 32 µg/mL (≈ 127 µM) |  |
| Cc1cc(OC(=O)CCCCCCC[P+](c2ccccc2)(c2ccccc2)c2ccccc2)c(C(C)C)cc1-c1ccccc1.[Br-] |  |  |  | MIC [5]: 32 µg/mL; MIC [6]: 16 µg/mL; MIC [7]: 32 µg/mL; MIC [8]: 16 µg/mL; MIC [9]: 8 µg/mL; MIC [10]: 8 µg/mL; IC50 at 72 h [11]: 21.1 µg/mL; MIC [12]: 4 µg/mL; MIC [13]: 16 µg/mL |
| Cc1cc(OC(=O)CCC[P+](c2ccccc2)(c2ccccc2)c2ccccc2)c(C(C)C)cc1-c1ccccc1.[Br-] |  |  |  | MIC [5]: > 64 µg/mL; MIC [6]: 32 µg/mL; MIC [7]: 64 µg/mL; MIC [8]: 8 µg/mL; MIC [9]: 16 µg/mL; MIC [10]: 8 µg/mL; IC50 at 72 h [11]: 5.04 µg/mL; MIC [12]: 16 µg/mL; MIC [13]: 16 µg/mL |
| Cc1cc(O)c(C(C)C)cc1-c1ccccc1F | 8 µg/mL (≈ 32.7 µM) | 16 µg/mL (≈ 65.5 µM) | 16 µg/mL (≈ 65.5 µM) |  |
| Cc1cc(OC(=O)CCCCCCCCCC[P+](c2ccccc2)(c2ccccc2)c2ccccc2)c(C(C)C)cc1-c1ccccc1.[Br-] |  |  |  | MIC [5]: > 64 µg/mL; MIC [6]: > 64 µg/mL; MIC [7]: 64 µg/mL; MIC [8]: > 64 µg/mL; MIC [9]: 32 µg/mL; MIC [10]: > 64 µg/mL; IC50 at 72 h [11]: 3.13 µg/mL; MIC [12]: > 64 µg/mL; MIC [13]: > 64 µg/mL |
| Cc1cc(O)c(C(C)C)cc1-c1ccc(F)cc1 | 16 µg/mL (≈ 65.5 µM) | 16 µg/mL (≈ 65.5 µM) | 16 µg/mL (≈ 65.5 µM) |  |
| Cc1cc(O)c(C(C)C)cc1-c1cccc(C(F)(F)F)c1 | 8 µg/mL (≈ 27.2 µM) | 4 µg/mL (≈ 13.6 µM) | 8 µg/mL (≈ 27.2 µM) |  |
| Cc1cccc(-c2cc(C(C)C)c(O)cc2C)c1 | 16 µg/mL (≈ 66.6 µM) | 8 µg/mL (≈ 33.3 µM) | 8 µg/mL (≈ 33.3 µM) |  |
